“Also recorded” adds a separate entry of the source. *1 amine or outer side, *2 acyl side, *3 side chain or, on linkers, in order; H or OH if unused. Where a SMILES comes first, the peptide text is derived from it. Side-chain parts run from the residue outwards. The star is where a group is joined. γGlu = O=C(O)[C@H](CCC(=O)[*:2])N[*:1]; Palmitoyl = CCCCCCCCCCCCCCCC(=O)*
Tests used:
Hep3B = Hep3B CDX mouse model; assay type: in vivo
Protocol: Animal experiments were conducted in accordance with ethical guidelines, and all protocols were approved by the Institutional Animal Care and Use Committee under Hanyang University (approval numbers, 2014‐0016A, 2018‐0049A, 2018‐0207A, and 2019‐0169A), Chung‐Ang University (approval number, 2015‐00022), Chungbuk University (approval number, CBNUA‐1072‐17‐02), and Konkuk University (approval number, KU17130). To establish xenograft mice models, Hep3B, A431, U343, and PC9 cells were subcutaneously injected into the flank of Balb/c nude mice. For the MDA‐MB‐231 (LM1) cell line, it was implanted into the mammary fat pad of immunodeficient mice (NPG mice). Once tumors were successfully established, the animals were randomly divided into a control (vehicle) group and an experimental (drug) group. When the tumor volume reached 100 cubic millimeters, either saline or an appropriate concentration of drugs was administrated into mice via tail vein every 3 or 5 days for appropriate duration. Tumor volume was calculated using the formula of length × width^2)/2. To generate an orthotopic liver cancer mice model, 75 mg kg^−1 (mpk) of DEN was intraperitoneally injected weekly for 3 weeks into C57BL/6 mice, followed by 100 mpk of DEN weekly for the subsequent 3 weeks. After 37 weeks of liver cancer induction, mice received either saline or an appropriate concentration of drugs via the tail vein every 5 days for the designated duration. The in vivo administration amount was determined based on the concentration of ACP52C confirmed at the cellular level, which was 2 µM. Assuming an average mouse weight of 30 grams and considering that ≈5.8% of body weight constitutes blood volume,^[ [49] ^] it was calculated that the blood concentration of ACP52C should be ten times the GI50 concentration in cell culture conditions. […] For ACP52C derivatives, the amount was adjusted to ensure a similar molar quantity of peptide injection, taking their molecular weights into account. For instance, in the case of ACP52CGK, ≈1.67 times the quantity was used compared to ACP52C to achieve an equivalent molar quantity. At the time of sacrifice, major organs and tumors were removed and weighed, and blood was extracted. For histological analysis, major organs and tumors of mice were immediately fixed in 10% formalin neutral buffer solution, dehydrated through a graded series of ethanol treatments, treated with xylene, paraffin embedded, and cut into 4 µm sections. Hematoxylin and eosin (H&E)‐stained tissue sections were analyzed and photographed, and the representative histological images were recorded. Liver nodules in the DEN orthotopic liver cancer model were estimated by measuring the ratio of tumor areas over entire liver tissues in the tissue section using an Image J (version 1.51) software at 40× magnification. Complete blood count (CBC) analysis was conducted using a Hematology analyzer (scil Vet ABC) from the extracted blood.

[1] = Storage stability of peptide activity; assay type: physicochemical; settings: stored in powder or solution form in a deep freezer
[2] = system: MDA‐MB‐231 LM1 breast cancer; experiment: MDA‐MB‐231 LM1 CDX mouse model; assay type: in vivo
Protocol: Animal experiments were conducted in accordance with ethical guidelines, and all protocols were approved by the Institutional Animal Care and Use Committee under Hanyang University (approval numbers, 2014‐0016A, 2018‐0049A, 2018‐0207A, and 2019‐0169A), Chung‐Ang University (approval number, 2015‐00022), Chungbuk University (approval number, CBNUA‐1072‐17‐02), and Konkuk University (approval number, KU17130). To establish xenograft mice models, Hep3B, A431, U343, and PC9 cells were subcutaneously injected into the flank of Balb/c nude mice. For the MDA‐MB‐231 (LM1) cell line, it was implanted into the mammary fat pad of immunodeficient mice (NPG mice). […] Tumor volume was calculated using the formula of length × width^2)/2. […] The in vivo administration amount was determined based on the concentration of ACP52C confirmed at the cellular level, which was 2 µM. […] For ACP52C derivatives, the amount was adjusted to ensure a similar molar quantity of peptide injection, taking their molecular weights into account. For instance, in the case of ACP52CGK, ≈1.67 times the quantity was used compared to ACP52C to achieve an equivalent molar quantity. […] Hematoxylin and eosin (H&E)‐stained tissue sections were analyzed and photographed, and the representative histological images were recorded. […]

[3] = system: murine erythroleukemia (MEL) cells; experiment: Erythroid differentiation of MEL cells; assay type: cell-based; settings: HMBA‐induced MEL cells, supplementation to the culture
Protocol: Information of the cell lines is listed in Table S1 (Supporting Information), including their origin and culture conditions. All cell lines were cultured at 37 °C, 5% CO2 incubator. MDA‐MB‐231 (LM1), HepG2, Hep3B, and HCT116 cell lines were authenticated with short tandem repeat markers based on ATCC information. All cell lines tested negative for mycoplasma contamination. Transient downregulation of the gene of interest was conducted by siRNA transfection using Lipofectamine 2000 (Thermo Fisher, 11668019) according to the manufacturer's instructions. Information about siRNAs is provided in Table S2 (Supporting Information). Stable cell lines were established by transfecting cells using Effectene reagent (Qiagen, 301425), followed by selection of cell clones in the presence of 1 µg mL^−1 puromycin (Sigma–Aldrich, P8833). The establishment of cell lines was confirmed by WB or RT‐qPCR. For doxycycline‐inducible gene expression regulation, cell lines were incubated in the presence of 1 µg mL^−1 doxycycline (Sigma–Aldrich, D9891) for 2–3 days. To promote sphere formation of the cell lines, each well of the tissue culture dish was coated with 10% poly 2‐hydroxyethyl methacrylate (polyHEMA). An appropriate number of cells per well were seeded in serum‐free DMEM/F12 (HyClone, SH30023.01) supplemented with B27, 20 ng mL^−1 bFGF, and 20 ng mL^−1 EGF. For erythroid terminal differentiation experiments, differentiation was assessed by hemoglobin staining using a 0.2% (w/v) tetramethylbenzidine solution (Sigma–Aldrich, T0440) in 0.6% hydrogen peroxide, 3% acetic acid for 10 min in dark condition. Benzidine‐positive or negative cell numbers were counted under the inverted microscope BX50 (Olympus) at 200 × magnification. […] After each synchronization, cells were fixed at 4‐h intervals for 24 h with ACP52C treatment, and the cell cycle was analyzed by Propidium Iodide (PI) staining or intracellular protein was analyzed by immunofluorescence. […] This development period was repeated four times for one round, after which GI50 concentrations were re‐assessed in each resistant cell line. […]

[4] = administered at five‐day intervals
[5] = intravenous injection at three‐day intervals, Sorafenib orally once daily as positive control

Row | Compound | anti‐tumor activity (Hep3B; [4]) | anti‐tumor activity (Hep3B; [5]) | loss of activity on storage [1] | tumor weight ([2]; intravenous injection every 2 or 3 days from day 14) | inhibition of erythroid differentiation [3] | anti‐tumor efficacy ([2]; administered at five‐day intervals, NPG mice)
1 | CC(=O)N[C@@H](CC(N)=O)C(=O)N[C@@H](Cc1ccc(O)cc1)C(=O)N1CCC[C@H]1C(=O)N[C@@H](CCC(N)=O)C(=O)N[C@@H](CCCNC(=N)N)C(=O)N1CCC[C@H]1C(=O)N[C@@H](CS)C(=O)N[C@@H](CCCNC(=N)N)C(=O)NCC(=O)N[C@@H](CC(=O)O)C(=O)N[C@@H](CCCCN)C(=O)NCC(=O)N1CCC[C@H]1C(=O)N[C@@H](CC(=O)O)C(=O)N[C@@H](CS)C(N)=O [ACP52C] (Ac-NYPQRPCRGDKGPDC-NH2) | reduced anti‐tumor activity compared to the three‐day interval administration | superior anti‐tumor activity compared to Sorafenib | gradually lose their activity over one year | significantly reduced tumor weight | inhibition of erythroid differentiation | –
2 | CCCCCCCCCCCCCCCC(=O)N[C@@H](CCC(=O)NCCCC[C@H](NC(=O)CNC(=O)CNC(=O)[C@@H]1CCCN1C(=O)[C@H](CCCNC(=N)N)NC(=O)[C@H](CCC(N)=O)NC(=O)[C@@H]1CCCN1C(=O)[C@H](Cc1ccc(O)cc1)NC(=O)[C@H](CC(N)=O)NC(C)=O)C(=O)NCC(=O)NCC(=O)N[C@@H](CS)C(=O)N[C@@H](CCCNC(=N)N)C(=O)NCC(=O)N[C@@H](CC(=O)O)C(=O)N[C@@H](CCCCN)C(=O)NCC(=O)N1CCC[C@H]1C(=O)N[C@@H](CC(=O)O)C(=O)N[C@@H](CS)C(N)=O)C(=O)O [ACP52CGK] (Ac-NYPQRPGGK([γGlu-Palmitoyl])GGCRGDKGPDC-NH2) | maintained its activity; also recorded: remarkable anti‐tumor efficacy | activity similar to that of ACP52C | gradually lose their activity over one year | – | – | remarkable anti‐tumor efficacy
3 | CCOc1ccccc1C1CC(=O)Nc2cc3c(cc21)OCO3 (stereo not shown) [FQI1, Factor Quinolinone Inhibitor 1, reference compound] | – | – | – | – | limited inhibitory effects on MEL cell differentiation in vitro | –

Reference: article PMC10667816, “A Cell‐Penetrant Peptide Disrupting the Transcription Factor CP2c Complexes Induces Cancer‐Specific Synthetic Lethality” (Advanced Science, 2023)
